Experimental data from ChEMBL document CHEMBL1909046, “DrugMatrix in vitro pharmacology data”.

Legend:
[1] = target: Receptor tyrosine-protein kinase erbB-2 (Homo sapiens, UniProt P04626); format: cell-based; conditions: insect cells;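 also: inhibition of HER2 kinase enzyme activity, measured with Poly(Glu:Tyr) as the phosphorylation substrate; in other assays of this panel Not Active means under 50% inhibition at 10 µM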
Caspase-1 = target: T1, Caspase-1 (Homo sapiens, UniProt P29466); parameters: species or system Escherichia coli;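 also: Caspase-1 enzyme inhibition assay with a peptide substrate; in other assays of this panel Not Active means under 50% inhibition at 10 µM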
T1 sequence (P29466 whole entry): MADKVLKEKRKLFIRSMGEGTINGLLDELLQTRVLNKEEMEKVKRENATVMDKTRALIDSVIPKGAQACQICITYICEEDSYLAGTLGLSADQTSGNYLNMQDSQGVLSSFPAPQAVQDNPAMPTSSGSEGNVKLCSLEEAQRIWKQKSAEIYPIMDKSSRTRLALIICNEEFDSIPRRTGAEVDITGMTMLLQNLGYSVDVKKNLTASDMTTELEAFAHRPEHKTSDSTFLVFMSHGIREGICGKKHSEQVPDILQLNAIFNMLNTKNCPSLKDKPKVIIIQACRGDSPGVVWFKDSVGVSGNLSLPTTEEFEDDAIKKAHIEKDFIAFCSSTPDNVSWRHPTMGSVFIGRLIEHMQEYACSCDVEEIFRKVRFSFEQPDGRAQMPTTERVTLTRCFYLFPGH

[2] = DRUGMATRIX: Potassium Channel [KATP] radioligand binding (ligand: [3H] Glyburide); format: cell membranes, Membrane; conditions: hit-t15; Not Active = under 50% inhibition at 10 µM
B2 bradykinin receptor = target: T2, B2 bradykinin receptor (Homo sapiens, UniProt P30411); format: cell membranes, Membrane; conditions: chem-1; also: in other assays of this panel Not Active means under 50% inhibition at 10 µM
T2 sequence (P30411 whole entry): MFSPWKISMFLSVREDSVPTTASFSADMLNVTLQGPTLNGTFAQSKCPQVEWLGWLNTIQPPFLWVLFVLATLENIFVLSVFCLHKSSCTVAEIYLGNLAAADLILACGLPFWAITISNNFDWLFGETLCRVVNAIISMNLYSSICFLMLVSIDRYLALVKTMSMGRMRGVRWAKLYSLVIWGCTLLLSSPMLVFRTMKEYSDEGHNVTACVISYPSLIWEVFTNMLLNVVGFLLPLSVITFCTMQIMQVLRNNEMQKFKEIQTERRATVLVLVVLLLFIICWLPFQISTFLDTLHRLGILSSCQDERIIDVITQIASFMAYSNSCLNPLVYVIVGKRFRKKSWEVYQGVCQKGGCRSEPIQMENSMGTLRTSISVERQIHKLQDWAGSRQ

[3] = target: T3, C-C chemokine receptor type 4 (Homo sapiens, UniProt P51679); format: cell membranes, Chem-1, Membrane; conditions: chem-1; also: in other assays of this panel Not Active means under 50% inhibition at 10 µM
T3 sequence (P51679 whole entry): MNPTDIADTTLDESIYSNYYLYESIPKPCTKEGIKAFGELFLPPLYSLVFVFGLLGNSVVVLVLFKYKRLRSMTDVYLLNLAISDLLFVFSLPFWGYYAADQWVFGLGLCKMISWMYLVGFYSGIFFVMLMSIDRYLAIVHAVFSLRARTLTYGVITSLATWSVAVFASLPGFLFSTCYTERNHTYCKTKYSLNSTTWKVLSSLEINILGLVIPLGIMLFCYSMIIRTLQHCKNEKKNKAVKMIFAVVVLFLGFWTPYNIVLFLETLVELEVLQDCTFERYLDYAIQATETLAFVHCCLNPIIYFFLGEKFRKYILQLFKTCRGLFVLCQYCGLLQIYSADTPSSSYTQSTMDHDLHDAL

[4] = DRUGMATRIX: Glutamate, AMPA radioligand binding (ligand: [3H] AMPA); format: cell membranes, Rattus norvegicus, Wistar, Cerebral cortex, Membrane; conditions: Not Active = under 50% inhibition at 10 µM
[5] = target: Delta-type opioid receptor (Homo sapiens, UniProt P41143); format: cell membranes, HEK293, Membrane; conditions: hek293; also: in other assays of this panel Not Active means under 50% inhibition at 10 µM
[6] = DRUGMATRIX: Phorbol Ester radioligand binding (ligand: [3H] PDBu); format: cell membranes, Mus musculus, ICR, Brain, Membrane; conditions: Not Active = under 50% inhibition at 10 µM

Sequence of Delta-type opioid receptor (P41143 whole entry): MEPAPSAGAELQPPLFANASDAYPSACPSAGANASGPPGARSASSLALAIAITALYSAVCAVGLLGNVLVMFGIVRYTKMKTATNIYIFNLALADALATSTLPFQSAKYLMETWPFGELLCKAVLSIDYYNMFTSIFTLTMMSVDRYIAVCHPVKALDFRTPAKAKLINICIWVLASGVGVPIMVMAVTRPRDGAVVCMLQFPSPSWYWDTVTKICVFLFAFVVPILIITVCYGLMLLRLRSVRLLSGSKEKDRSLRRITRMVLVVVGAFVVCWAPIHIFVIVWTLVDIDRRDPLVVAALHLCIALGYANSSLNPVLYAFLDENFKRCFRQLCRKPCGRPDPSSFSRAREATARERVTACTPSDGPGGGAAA
Sequence of Receptor tyrosine-protein kinase erbB-2 (P04626 whole entry): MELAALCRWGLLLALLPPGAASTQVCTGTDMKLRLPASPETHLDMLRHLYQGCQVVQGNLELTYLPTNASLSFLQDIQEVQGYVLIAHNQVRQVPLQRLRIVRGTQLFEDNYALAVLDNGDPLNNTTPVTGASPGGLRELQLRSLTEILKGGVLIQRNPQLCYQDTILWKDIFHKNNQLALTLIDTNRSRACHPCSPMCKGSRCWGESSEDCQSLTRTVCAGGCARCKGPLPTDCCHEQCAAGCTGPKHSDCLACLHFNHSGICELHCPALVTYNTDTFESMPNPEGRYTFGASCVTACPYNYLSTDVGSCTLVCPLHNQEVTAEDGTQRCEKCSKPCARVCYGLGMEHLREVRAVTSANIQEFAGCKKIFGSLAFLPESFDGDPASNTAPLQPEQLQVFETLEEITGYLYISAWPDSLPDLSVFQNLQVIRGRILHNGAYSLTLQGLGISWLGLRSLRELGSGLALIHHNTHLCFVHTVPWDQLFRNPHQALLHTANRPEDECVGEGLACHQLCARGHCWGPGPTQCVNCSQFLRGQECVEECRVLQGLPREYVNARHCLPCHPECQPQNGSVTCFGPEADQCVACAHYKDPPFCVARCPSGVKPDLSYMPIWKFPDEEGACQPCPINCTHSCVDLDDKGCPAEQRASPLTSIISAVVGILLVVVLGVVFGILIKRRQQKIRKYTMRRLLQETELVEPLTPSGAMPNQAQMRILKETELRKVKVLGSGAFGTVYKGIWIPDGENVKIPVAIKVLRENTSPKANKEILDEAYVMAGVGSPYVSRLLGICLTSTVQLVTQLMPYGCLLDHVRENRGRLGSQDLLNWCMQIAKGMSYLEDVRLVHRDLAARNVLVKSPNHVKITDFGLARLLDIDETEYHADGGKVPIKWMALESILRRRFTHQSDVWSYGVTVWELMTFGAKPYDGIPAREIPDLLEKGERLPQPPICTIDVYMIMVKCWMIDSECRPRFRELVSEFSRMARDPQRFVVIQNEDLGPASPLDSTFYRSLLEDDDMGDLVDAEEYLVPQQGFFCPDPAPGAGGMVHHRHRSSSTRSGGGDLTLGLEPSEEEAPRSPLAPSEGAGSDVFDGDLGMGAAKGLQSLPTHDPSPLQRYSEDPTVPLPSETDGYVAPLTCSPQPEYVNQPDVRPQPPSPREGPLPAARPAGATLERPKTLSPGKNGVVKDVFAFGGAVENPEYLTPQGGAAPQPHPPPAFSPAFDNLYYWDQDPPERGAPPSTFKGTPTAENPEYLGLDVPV

Cc1cnc(NC(=O)C2=C(O)c3ccccc3S(=O)(=O)N2C)s1 [MELOXICAM]
Not Active: IC50 [1] | IC50 (Caspase-1) | IC50 [2] | Ki [2] | IC50 (B2 bradykinin receptor) | IC50 [3] | IC50 [4] | Ki [4] | IC50 [5] | IC50 [6] | Ki [6]

CN1C[C@H](CNC(=O)OCc2ccccc2)C[C@@H]2c3cccc4c3c(cn4C)C[C@H]21 [METERGOLINE]
Not Active: IC50 [1] | IC50 (Caspase-1) | IC50 [2] | Ki [2] | IC50 (B2 bradykinin receptor) | IC50 [3] | IC50 [4] | Ki [4] | IC50 [5] | IC50 [6] | Ki [6]

C[N+]1(C)[C@@H]2C[C@@H](OC(=O)[C@H](CO)c3ccccc3)C[C@H]1[C@@H]1O[C@@H]12.[Br-] [METHSCOPOLAMINE BROMIDE]
Not Active: IC50 [1] | IC50 (Caspase-1) | IC50 [2] | Ki [2] | IC50 (B2 bradykinin receptor) | IC50 [3] | IC50 [4] | Ki [4] | IC50 [5] | IC50 [6] | Ki [6]

CCN(CC)CCNC(=O)c1cc(Cl)c(N)cc1OC [METOCLOPRAMIDE]
Not Active: IC50 [1] | IC50 (Caspase-1) | IC50 [2] | Ki [2] | IC50 (B2 bradykinin receptor) | IC50 [3] | IC50 [4] | Ki [4] | IC50 [5] | IC50 [6] | Ki [6]

CC[C@H](C)C(=O)O[C@H]1CCC=C2C=C[C@H](C)[C@H](CC[C@@H]3C[C@@H](O)CC(=O)O3)[C@H]21 [MEVASTATIN]
Not Active: IC50 [1] | IC50 (Caspase-1) | IC50 [2] | Ki [2] | IC50 (B2 bradykinin receptor) | IC50 [3] | IC50 [4] | Ki [4] | IC50 [5] | IC50 [6] | Ki [6]

CC#C[C@]1(O)CC[C@H]2[C@@H]3CCC4=CC(=O)CCC4=C3[C@@H](c3ccc(N(C)C)cc3)C[C@@]21C [MIFEPRISTONE]
Not Active: IC50 [1] | IC50 (Caspase-1) | IC50 [2] | Ki [2] | IC50 (B2 bradykinin receptor) | IC50 [3] | IC50 [4] | Ki [4] | IC50 [5] | IC50 [6] | Ki [6]

Cc1[nH]c(=O)c(C#N)cc1-c1ccncc1 [MILRINONE]
Not Active: IC50 [1] | IC50 (Caspase-1) | IC50 [2] | Ki [2] | IC50 (B2 bradykinin receptor) | IC50 [3] | IC50 [4] | Ki [4] | IC50 [5] | IC50 [6] | Ki [6]

CO[C@@]12[C@H](COC(N)=O)C3=C(C(=O)C(C)=C(N)C3=O)N1C[C@@H]1N[C@@H]12 [MITOMYCIN]
Not Active: IC50 [1] | IC50 (Caspase-1) | IC50 [2] | Ki [2] | IC50 (B2 bradykinin receptor) | IC50 [3] | IC50 [4] | Ki [4] | IC50 [5] | IC50 [6] | Ki [6]

CCOc1cc(N)c(Cl)cc1C(=O)NCC1CN(Cc2ccc(F)cc2)CCO1 (centres undefined) [MOSAPRIDE]
Not Active: IC50 [1] | IC50 (Caspase-1) | IC50 [2] | Ki [2] | IC50 (B2 bradykinin receptor) | IC50 [3] | IC50 [4] | Ki [4] | IC50 [5] | IC50 [6] | Ki [6]

CCN(CC)N=O [N-NITROSODIETHYLAMINE]
Not Active: IC50 [1] | IC50 (Caspase-1) | IC50 [2] | Ki [2] | IC50 (B2 bradykinin receptor) | IC50 [3] | IC50 [4] | Ki [4] | IC50 [5] | IC50 [6] | Ki [6]

Oc1ccc(/C=C/c2cc(O)cc(O)c2)cc1 [RESVERATROL]
Not Active: IC50 [1] | IC50 (Caspase-1) | IC50 [2] | Ki [2] | IC50 (B2 bradykinin receptor) | IC50 [3] | IC50 [4] | Ki [4] | IC50 [5] | IC50 [6] | Ki [6]

CC(N)C12CC3CC(CC(C3)C1)C2 (centres undefined) [RIMANTADINE]
Not Active: IC50 [1] | IC50 (Caspase-1) | IC50 [2] | Ki [2] | IC50 (B2 bradykinin receptor) | IC50 [3] | IC50 [4] | Ki [4] | IC50 [5] | IC50 [6] | Ki [6]

CS(=O)(=O)c1ccc(C2=C(c3ccccc3)C(=O)OC2)cc1 [ROFECOXIB]
Not Active: IC50 [1] | IC50 (Caspase-1) | IC50 [2] | Ki [2] | IC50 (B2 bradykinin receptor) | IC50 [3] | IC50 [4] | Ki [4] | IC50 [5] | IC50 [6] | Ki [6]

C=CCc1ccc2c(c1)OCO2 [SAFROLE]
Not Active: IC50 [1] | IC50 (Caspase-1) | IC50 [2] | Ki [2] | IC50 (B2 bradykinin receptor) | IC50 [3] | IC50 [4] | Ki [4] | IC50 [5] | IC50 [6] | Ki [6]
